Measurements taken from the NIST ThermoML archive (doi:10.1016/j.jct.2013.01.026).
± gives the expanded uncertainty stated by the source.

Columns and labels:
[1] = refractive index (other wavelength) (dimensionless); conditions: 298.15 K, 101.3 kPa, Liquid, Standard Abbe refractometry
[2] = refractive index (other wavelength) (dimensionless); wn = mass fraction of the nth substance listed; conditions: 298.15 K, 101.3 kPa, Liquid, Standard Abbe refractometry

c1ccc2c(c1)CCCC2 [1,2,3,4-tetrahydronaphthalene]
[1]
Conditions	refractive index
Wavelength=670 nm	1.53479 ± 0.00052
Wavelength=925 nm	1.52642 ± 0.00052

c1ccc2c(c1)CCCC2 [1,2,3,4-tetrahydronaphthalene] + CCCCCCCCCCCC
refractive index, [2]
Conditions	w2 = 0	w2 = 0.1	w2 = 0.1999	w2 = 0.2999	w2 = 0.4001	w2 = 0.4999	w2 = 0.6002	w2 = 0.6999	w2 = 0.8	w2 = 0.9001
Wavelength=670 nm	1.53479 ± 0.00052	1.51956 ± 0.00051	1.505 ± 0.0005	1.49244 ± 0.00048	1.47987 ± 0.00047	1.46832 ± 0.00045	1.45728 ± 0.00044	1.44674 ± 0.00043	1.43694 ± 0.00042	1.42736 ± 0.0004
Wavelength=925 nm	1.52642 ± 0.00052	1.51181 ± 0.00051	1.49762 ± 0.00049	1.48558 ± 0.00048	1.47343 ± 0.00047	1.4622 ± 0.00045	1.45157 ± 0.00044	1.44149 ± 0.00043	1.43179 ± 0.00042	1.42273 ± 0.0004

CC(C)Cc1ccccc1 [(2-methylpropyl)benzene]
[1]
Conditions	refractive index
Wavelength=670 nm	1.48071 ± 0.00035
Wavelength=925 nm	1.47345 ± 0.00035

CC(C)Cc1ccccc1 [(2-methylpropyl)benzene] + CCCCCCCCCCCC
refractive index, [2]
Conditions	w2 = 0.0998	w2 = 0.2001	w2 = 0.3002	w2 = 0.4	w2 = 0.4999	w2 = 0.6	w2 = 0.7001	w2 = 0.8002	w2 = 0.9001
Wavelength=670 nm	1.47308 ± 0.00036	1.46588 ± 0.00036	1.45898 ± 0.00036	1.45233 ± 0.00037	1.44607 ± 0.00037	1.44006 ± 0.00037	1.43407 ± 0.00038	1.42875 ± 0.00038	1.42337 ± 0.00039
Wavelength=925 nm	1.46604 ± 0.00036	1.45912 ± 0.00036	1.45266 ± 0.00036	1.44638 ± 0.00037	1.44043 ± 0.00037	1.43444 ± 0.00037	1.42884 ± 0.00038	1.42387 ± 0.00038	1.4187 ± 0.00039

CC(C)Cc1ccccc1 [(2-methylpropyl)benzene] + c1ccc2c(c1)CCCC2
refractive index, [2]
Conditions	w2 = 0	w2 = 0.1003	w2 = 0.2	w2 = 0.2999	w2 = 0.3977	w2 = 0.4996	w2 = 0.6002	w2 = 0.699	w2 = 0.8001	w2 = 0.8997
Wavelength=670 nm	1.48071 ± 0.00035	1.48573 ± 0.00036	1.49084 ± 0.00037	1.49587 ± 0.00039	1.50109 ± 0.0004	1.50663 ± 0.00042	1.51197 ± 0.00044	1.51743 ± 0.00046	1.52313 ± 0.00048	1.52865 ± 0.0005
Wavelength=925 nm	1.47345 ± 0.00035	1.47803 ± 0.00036	1.48337 ± 0.00038	1.48805 ± 0.00039	1.49344 ± 0.0004	1.49865 ± 0.00042	1.50413 ± 0.00044	1.5092 ± 0.00046	1.51499 ± 0.00048	1.52005 ± 0.0005

CCCCCCCCCCCC [dodecane]
[1]
Conditions	refractive index
Wavelength=670 nm	1.41845 ± 0.00039
Wavelength=925 nm	1.41407 ± 0.00039

CCCCCCCCCCCC [dodecane] + CC(C)Cc1ccccc1
[2], w1 = 1
Conditions	refractive index
Wavelength=670 nm	1.41845 ± 0.00039
Wavelength=925 nm	1.41407 ± 0.00039
